Laboratory results published in PMC12408683 (Archives of Toxicology, 2025).

Key:
[1] = system: primary human hepatocytes (PHH); assay: Western blot of γH2AX and p53 in primary human hepatocytes; conditions: 24 h; for γH2AX induction vs. control: selected concentrations
Protocol: (§1) Both cell lines were cultivated in DMEM high glucose without pyruvate (Gibco, Thermo Fisher Scientific, Waltham MA, USA) supplemented with 10% foetal calf serum (FCS, Pan-Biotech, Aidenbach, Germany) and 1% penicillin/streptomycin (Gibco, Thermo Fisher Scientific, Waltham MA, USA). […] Cryopreserved PHH (BioIVT, Brussels, Belgium) pooled from 10 donors (5 × females, 5 × males) were handled according to the protocol of the manufacturer. […] Cells were then diluted, plated for the respective assays in collagen-coated plates, and allowed to adhere for 3 h.
(§2) To this end, 5 × 10^5 cells were seeded in 3.5-cm dishes to adhere overnight. […] Proteins were separated by SDS-PAGE followed by the transfer onto a nitrocellulose membrane using the wet blot method. The successful transfer was confirmed by Ponceau S staining of the membrane before blocking with 5% non-fat dry milk in Tris-buffered saline with Tween-20 (MP-TBS-T). Subsequently, the membrane was incubated with the respective primary antibodies overnight at 4 °C. The membranes were washed three times for 5 min with TBS-T before incubating with the respective secondary antibody coupled with horseradish peroxidase. The detection was carried out using the Western Lightning Plus-ECL reagent (Perkin Elmer, Waltham MA, USA) with the c300 chemiluminescence imager (Azure Biosystems, Dublin CA, USA). The used primary and secondary antibodies are detailed in supplementary Table S3.

[2] = system: primary human hepatocytes (PHH); assay: Resazurin reduction assay (cytotoxicity) in PHH; conditions: 24 h
Protocol: as §1
PHH were seeded in 96-well plates precoated with collagen at a cell density of 7 × 10^4/well, left to adhere for 3 h, and treated as described above for 24 h. After treatment, medium was discarded and replaced by resazurin reaction solution containing 44 µM resazurin in NaCl/Pi buffer (1.1 mM KH2PO4, 154 mM NaCl, and 3.7 mM Na2HPO4∙H2O) diluted 1:10 in medium without FCS and P/S. The cells were then incubated for 1.5 h and fluorescence was measured using a Spark® microplate reader (Tecan, Männedorf, Switzerland) with an excitation at 544 nm and emission at 590 nm. The cell viability was calculated relative to the negative control (set to 100%).

[3] = system: HepG2-CYP1A2 cells; assay: Western blot of γH2AX and p53 in HepG2-CYP1A2 cells; conditions: 24 h
Protocol: as §2, with “γH2AX and p53 levels were assessed by SDS-PAGE and western blotting as reported (Fahrer et al. [2013]). To” for “To”

[4] = system: HepaRG cells; parameters: method as in Le Hegarat et al. 2014; conditions: ref Le Hegarat et al. 2014; cited from earlier work

SMILES	p53 levels [1]	γH2AX induction vs. control [1]	EC50 ([2]; read-out: EC50 (cell viability)) [µM]	γH2AX induction vs. control ([3]; 250 µM ES)	p53 accumulation [3]	viability ([2]; test concentrations up to 5 mM)	lowest effect concentration for MN formation [4] [mM]
C=CC(O)c1ccc(OC)cc1 (centres unmarked) [1′OH-ES, 1′-hydroxyestragole]	slightly declined	threefold	107	–	–	–	–
C=CCc1ccc(OC)cc1 [ES, estragole]	–	1.4 fold	–	threefold	No p53 accumulation	did not affect viability	1
